According to US20220193386A1, “MICRONEEDLE ARRAYS FOR CANCER THERAPY APPLICATIONS” (University of Pittsburgh - Of the Commonwealth System of …, priority 2014, published 2022):

Tests used:
epidermal cells = conditions: pyramidal CMC-microneedle arrays, 5 mg/g of CMC, arrays removed after 5 minutes, 72 hours of exposure
Description: Cytoxan® was integrated at a concentration of 5 mg/g of CMC, enabling delivery of approximately about 140 μg per array. This is a therapeutically relevant concentration based on the area of skin targeted, yet well below levels associated with systemic toxicities. Living human skin organ cultures were used to assess the cytotoxicity of Cytoxan®. Cytoxan® was delivered by application of arrays to skin explants as we previously described. Arrays and residual material were removed 5 minutes after application, and after 72 hours of exposure, culture living skin explants were cryo-sectioned and fixed. Apoptosis was evaluated using green fluorescent TUNEL assay (In Situ Cell Death Detection Kit, TMR Green, Roche, cat #:11-684-795-910).

B16 melanoma = B16 melanoma model: MNA treatment of established cutaneous tumors, tumor growth and survival; conditions: MNAs once weekly for three weeks, established B16 skin tumors; for tumor growth: vs untreated; for survival: untreated 100% mortality, through day 70
Description: The B16 melanoma model was used as a model tumor to test these novel approaches.
B16 skin tumors were established in normal mice by injection. Visible established cutaneous tumors were treated once weekly for three weeks with MNAs containing either doxorubicin alone, Poly(I:C) alone, or doxorubicin and Poly(I:C) incorporated into the same MNA. […] Tumor growth and survival were measured regularly for the duration of the study.

human skin = assay: Apoptosis and necrosis in human skin at the doxorubicin MNA dose; conditions: MNA dose of doxorubicin chosen for the B16 study
OVA = assay: OVA-specific CTL activity in vivo after CMC-microneedle array immunization; set-up: species or system mice; conditions: pyramidal CMC-microneedle arrays on mouse ears, 5 minutes, boosted one week later
Source text: To directly evaluate the immunogenicity of CMC microneedle array incorporated antigens, the well characterized model antigen ovalbumin was used. Pyramidal arrays were fabricated incorporating either soluble ovalbumin (sOVA), particulate ovalbumin (pOVA), or arrays containing both pOVA along with CpGs. The adjuvant effects of CpGs are well characterized in animal models, and their adjuvanticity in humans is currently being evaluated in clinical trials.
Immunization was achieved by applying antigen containing CMC-microneedle arrays to the ears of anesthetized mice using a spring-loaded applicator as described above, followed by removal of the arrays 5 minutes after application. These pyramidal microneedle arrays contained about 5 wt % OVA in CMC and about 0.075 wt % (20 μM) CpG. As a positive control, gene gun based genetic immunization strategy using plasmid DNA encoding OVA was used.
Mice were immunized, boosted one week later, and then assayed for OVA-specific CTL activity in vivo. […] It is well established that similar responses require substantially higher doses of antigen when delivered by traditional needle injection.
To evaluate the stability of fabricated arrays, batches of arrays were fabricated, stored, and then used over an extended period of time. […]

Row | Compound | tumor growth (B16 melanoma) | survival (B16 melanoma) [%] | OVA-specific CTL activity in vivo (OVA) | further results
1 | O=P1(N(CCCl)CCCl)NCCCO1 (centres unmarked) [Cytoxan®, cyclophosphamide] | – | – | – | apoptosis of epidermal cells (TUNEL) (epidermal cells): extensive apoptosis of epidermal cells
2 | Poly(I:C) | slowed tumor growth | 50 | – | –
3 | COc1cccc2c1C(=O)c1c(O)c3c(c(O)c1C2=O)C[C@@](O)(C(=O)CO)C[C@@H]3O[C@H]1C[C@H](N)[C@H](O)[C@H](C)O1 [doxorubicin] | slowed tumor growth | 30 | – | apoptosis / necrosis in human skin (human skin): induces apoptosis in human skin without causing necrosis
4 | particulate OVA: particulate ovalbumin model antigen incorporated in pyramidal CMC microneedle arrays | – | – | Significant OVA-specific CTL activity | –
5 | soluble OVA: soluble ovalbumin model antigen incorporated in pyramidal CMC microneedle arrays | – | – | Significant OVA-specific CTL activity | –
